# Assay results: US20050282755A1, “Compositions having antimicrobial activity and uses thereof” (priority 2004, published 2005)
# Read-outs that look alike come from different tables or passages of the source. Non-standard residues stand in square brackets, D forms with d. Residues, ends and D or L forms follow the SMILES beside them. *: point of attachment. Lauroyl = CCCCCCCCCCCC(=O)*; dOrn = NCCC[C@@H](N)C(=O)O
# What was measured:
# P. acnes = test: Mouse skin assay, bactericidal activity on excised Balb/c skin; format: cell-based, Propionibacterium acnes; settings: Incubation time 120 min; P. acnes untreated 0.9 × 10^8 cfu/ml
# [1] = tested on: Propionibacterium acnes ATCC 6919; format: cell-based
# Procedure, shortened: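 MIC by non-standard broth microdilution in reinforced Clostridial broth, log-phase P. acnes inoculum at 5×10^5 to 1×10^6 CFU/mL. Plates were held anaerobically 48–72 h at 37° C; MIC was the lowest peptide concentration with no visible turbidity relative to the no-peptide control.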
# Salmonella dublin (Lane) = test: MIC, NCCLS M7-A6 broth microdilution (Table 9, no superscript); format: cell-based
# Procedure, shortened: (§1)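 CAMHB microdilution; final inoculum 5×10^5–1×10^6 CFU/milliliter from log-phase culture; overnight, 37° C; MIC = lowest peptide conc. without visible growth (turbidity) vs no-peptide control.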
# [2] = tested on: Staphylococcus aureus ATCC 29213; test: MIC, NCCLS M7-A6 broth microdilution, cation-adjusted Mueller Hinton broth (Table 9, no superscript); format: cell-based; settings: ATCC 29213
# Procedure, shortened: as §1
# [3] = tested on: Staphylococcus epidermidis ATCC 12228; settings: ATCC 12228, pH 7.4
# [4] = tested on: Candida albicans ATCC 18804; test: MIC in yeasts, NCCLS M27-A2 broth microdilution, RPMI 1640 (Table 9, letter e); format: cell-based; settings: ATCC 18804
# Procedure, shortened: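 Broth microdilution per NCCLS M27-A2 in RPMI 1640 with glutamine and phenol red, final inoculum 0.5×10^3–2.5×10^3 CFU/milliliter. Incubated 24 to 48 hours at 37° C; MIC is the lowest peptide concentration with no visible growth.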
# [5] = tested on: Pseudomonas aeruginosa ATCC 27853; settings: ATCC 27853, pH 7.4
# S. aureus (Rosenbach) = test: Broth microdilution assay for MIC (20% TSB, 50 mM Na2CO3, 1 mM MgCl2), Table 4A; format: cell-based, Staphylococcus aureus; settings: 3 log or greater reduction in bacterial growth over 16 hours
# Experimental: (§2) S. dublin (Lane), S. aureus (Rosenbach), P. acnes, ATCC 6919, E. coli K12 TOP10, and E. coli K12 55099 (protease neg.) bacterial strains were tested in the microbial inhibition assays described hereafter. The S. dublin (Lane), and S. aureus (Rosenbach) strains are available from ATCC (Staphylococcus aureus subsp. aureus Rosenbach (Number: 13150) and Salmonella choleraesuis serotype dublin (Number: 39184)). The strain of P. acnes was purchased from ATCC (strain #6919) (Manassas, Va.). The E. coli K12 strains TOP 10 and 55099 were purchased from Invitrogen (Carlsbad, Calif.) and ATCC respectively. HeLa cells were purchased from ATCC (CCL2). Tryptic soy broth (TSB), Brucella broth, reinforced Clostridial broth and agar were purchased from Becton & Dickinson (distributed by VWR, West Chester, Pa.). All plastic consumables were purchased from VWR (West Chester, Pa.). […]
# (§3) The minimum inhibitory concentration (MIC) of peptide compositions for S. aureus, S. dublin and E. coli was determined in a broth microdilution assay. […] The MIC for each peptide for each microorganism was determined by three methods. The growth of bacteria was directly determined by measuring the absorption at 600 nm using a Versamax microplate reader (Molecular Devices). […] After incubation for 16 hours at 37° C. bacterial growth was evaluated and documented (Alpha Innotech gel documentation system).
# [6] = tested on: E. coli K12 55099 (protease neg.); settings: 3 log or greater reduction in bacterial growth over 16 hours
# S. dublin (Lane) = test: Broth microdilution assay for MIC, Table 4A; format: cell-based, Salmonella dublin; settings: 3 log or greater reduction in bacterial growth over 16 hours
# Experimental: as §2, §3
# [7] = tested on: Propionibacterium acnes ATCC 6919; test: MIC, agar dilution method NCCLS M11-A6, Brucella agar, anaerobic (Table 9, superscript c); format: cell-based; settings: letter c: agar dilution NCCLS M11-A6, Brucella agar, anaerobic
# Procedure, shortened: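 Agar dilution per NCCLS M11-A6 on Brucella agar; final inoculum 1.5×10^8 CFU/milliliter applied to plates, incubated 48-96 hours at 37° C. under anaerobic (GasPak) conditions. MIC = lowest peptide concentration with no colony growth.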
# E. coli K12 TOP10 = settings: 3 log or greater reduction in bacterial growth over 16 hours
# human red blood cells = format: cell-based; settings: red cells of human
# Experimental: Hemoglobin-release assays with human red blood cells (RBC) were performed to determine the hemolytic activity of granulysin peptides. Human RBCs (San Diego Blood Bank, San Diego, Calif.) were washed three times in PBS buffer (8 mM Na2HPO4, 1.5 mM KH2PO4, 140 mM NaCl and 2.7 mM KCl, pH 7.4), resuspended in PBS to the concentration of 5% (v/v). The RBC were then exposed to different peptide compositions at various concentrations (100-6.25 micromolar) and incubated at 37° C. for 60 minutes in a total volume of 120 microliters. Every experiment included a negative control without peptide and maximum control treated with 5% TX-100 for complete hemoglobin release. Samples were centrifuged for 1 minute at 13,000 g to remove debris and intact cells. The hemoglobin-containing supernatant was removed and transferred to a microwell plate. Hemoglobin release was quantified at A540 using a Versamax plate reader (Molecular Devices). The degree of hemolysis is expressed as percentage of hemolysis compared to the […], using the following formula: % hemolysis=(sample−neg. control)/(max. control−neg. control)×100.
# [8] = tested on: Pseudomonas aeruginosa ATCC 27853; test: MIC, NCCLS M7-A6 broth microdilution (Table 9, no superscript); format: cell-based; settings: ATCC 27853
# Procedure, shortened: as §1
# [9] = tested on: Escherichia coli ATCC 25922; test: as above; format: cell-based; settings: ATCC 25922
# Procedure, shortened: as §1
# [10] = tested on: Staphylococcus epidermidis ATCC 12228; test: as above; format: cell-based; settings: ATCC 12228
# Procedure, shortened: as §1
Structure (SMILES),P. acnes recovered from mouse skin (P. acnes),MIC P. acnes [1] [µg·days/mL],MIC S. dublin (Salmonella dublin (Lane)) [µg/mL],MIC S. aureus [2] [µg/mL],MIC S. epidermidis [3] [b ug/mL],MIC C. albicans [4] [e ug/mL],MIC P. aeruginosa [5] [b ug/mL],Minimum inhibitory concentration (MIC) S. aureus (S. aureus (Rosenbach)) [µM],Minimum inhibitory concentration (MIC) E. coli 55099 [6] [µM],Minimum inhibitory concentration (MIC) S. dublin (S. dublin (Lane)) [µM],MIC P. acnes [7] [c ug/mL],Minimum inhibitory concentration (MIC) E. coli Top10 (E. coli K12 TOP10) [µM],Hemolytic effect on human red blood cells (human red blood cells; 6.25 Micromolar) [%],Hemolytic effect on human red blood cells (human red blood cells; 12.5 Micromolar) [%],Hemolytic effect on human red blood cells (human red blood cells; 25 Micromolar) [%],Hemolytic effect on human red blood cells (human red blood cells; 50 Micromolar) [%],Hemolytic effect on human red blood cells (human red blood cells; 100 Micromolar) [%],MIC P. aeruginosa [8] [µg/mL],MIC E. coli [9] [µg/mL],MIC S. epidermidis [10] [µg/mL]
"CSCC[C@@H](NC(=O)[C@@H](Cc1ccccc1)NC(=O)[C@@H](CC(N)=O)NC(=O)[C@@H](CCCNC(=N)N)NC(=O)[C@@H](CO)NC(=O)[C@@H](Cc1c[nH]c2ccccc12)NC(=O)[C@@H](CC(=O)O)NC(=O)[C@@H](CCCNC(=N)N)NC(=O)[C@@H](Cc1c[nH]c2ccccc12)NC(=O)[C@@H](CCCNC(=N)N)NC(=O)[C@@H](CO)NC(=O)[C@@H](CCCNC(=N)N)NC(=O)CNC(=O)[C@H](NC(=O)[C@@H](CCCNC(=N)N)NC(=O)[C@@H](CO)NC(=O)[C@H](NC(=O)[C@@H](CCCNC(=N)N)NC(=O)[C@H](NC(C)=O)[C@H](C)O)C(C)C)[C@H](C)O)C(=O)N[C@H](CCCNC(=N)N)C(=O)N[C@H](CCCN)C(=O)N[C@H](CCCN)C(=O)N[C@H](CCCN)C(=O)N[C@H](CCCN)C(=O)N[C@H](CCCN)C(=O)N[C@H](CCCN)C(=O)N[C@H](CCCN)C(=O)N[C@H](CCCN)C(N)=O [Peptide 35, Ac-trvsrtgrsrwrdwsrnfmroooooooo-NH2] (Ac-[dT][dR][dV][dS][dR][dT]G[dR][dS][dR][dW][dR][dD][dW][dS][dR][dN][dF][dM][dR][dOrn][dOrn][dOrn][dOrn][dOrn][dOrn][dOrn][dOrn]-NH2)",4.5 × 10^4 cfu/ml,6,>64,>64,–,–,–,–,–,–,–,–,–,–,–,–,–,–,–,–
"CSCC[C@@H](NC(=O)[C@@H](Cc1ccccc1)NC(=O)[C@@H](CC(N)=O)NC(=O)[C@@H](CCCNC(=N)N)NC(=O)[C@@H](C)NC(=O)[C@H](NC(=O)[C@@H](CC(=O)O)NC(=O)[C@@H](CCCNC(=N)N)NC(=O)[C@@H](Cc1c[nH]c2ccccc12)NC(=O)[C@@H](CCCNC(=N)N)NC(=O)[C@@H](CO)NC(=O)[C@@H](CCCNC(=N)N)NC(C)=O)C(C)C)C(=O)N[C@H](CCCNC(=N)N)C(N)=O [Peptide 96, Ac-rsrwrdvarnfmr-NH2] (Ac-[dR][dS][dR][dW][dR][dD][dV][dA][dR][dN][dF][dM][dR]-NH2)",–,12.5,>64,>64,12.5,8,50,–,–,–,–,–,–,–,–,–,–,–,–,–
CCCCCCCCCCCC(=O)N[C@H](C(=O)N[C@@H](CCCNC(=N)N)C(=O)N[C@H](C(=O)N[C@@H](CO)C(=O)N[C@@H](CCCNC(=N)N)C(=O)N[C@H](C(=O)NCC(=O)N[C@@H](CCCNC(=N)N)C(=O)N[C@@H](CO)C(=O)N[C@@H](CCCNC(=N)N)C(=O)N[C@@H](Cc1c[nH]c2ccccc12)C(=O)N[C@@H](CCCNC(=N)N)C(=O)N[C@@H](CC(=O)O)C(=O)N[C@@H](Cc1c[nH]c2ccccc12)C(=O)N[C@@H](CO)C(=O)N[C@@H](CCCNC(=N)N)C(=O)N[C@@H](CC(N)=O)C(=O)N[C@@H](Cc1ccccc1)C(=O)N[C@@H](CCSC)C(=O)N[C@@H](CCCNC(=N)N)C(=O)N[C@@H](CCCCN)C(N)=O)[C@@H](C)O)C(C)C)[C@@H](C)O [Peptide 64] (Lauroyl-TRVSRTGRSRWRDWSRNFMRK-NH2),–,–,16,8,–,32,–,2,1,8,>64,2,14,15,29,46,81,>64,64,1
